Several values for one entry are separate records, joined by “and”; a condition that tells them apart may be missing. Equal values may be shown once.
Tests used:
Assay type in all cases: in vivo, human
[1] = test system: PMC from schizophrenic patients; assay: Real-time RT-PCR of IL8Rα, CCR1, CCR7, RGS7 mRNAs in PMC (6 patients)
Procedure: FIGS. 1A-1D show real-time RT-PCR analysis of CCR1 (1A), CCR7 (1B), IL8Ra (1C) and RGS7 (1D) mRNAs in PMCs from schizophrenic patients treated with an antipsychotic drug combined with the antidepressant agent fluvoxamine. Fluvoxamine (100 mg/day) was added in an open study format to the constant antipsychotic treatment of 6 patients suffering from chronic schizophrenia with persistent negative symptoms. Total RNA, isolated from PMCs of these patients at baseline (day 0, BL) as well as following 3 and 6 weeks (3W and 6W, respectively) of the combined treatment, was reverse transcribed. cDNA was amplified in real-time PCR using suitable primers for CCR1, CCR7, IL8Ra and RGS7, as described in the Experimental section hereinafter. The relative expression level of a given mRNA was assessed by normalizing to the reference gene peptidylprolyl isomerase B (cyclophilin B, PPIB). For each patient, the expression level of each one of the genes at baseline was arbitrarily set as 1, and the gene expression levels at 3 and 6 weeks were calculated relative to baseline. Lines connecting points indicate samples of the same patient. Horizontal lines indicate group means. Student's t-test *p<0.05; **p<0.01 for 3 or 6 weeks of fluvoxamine add-on compared with baseline.
(§1) Two μg of total RNA were denatured and reverse transcribed using random hexanucleotides (0.5 μg/μl) as previously described (Chertkow et al., 2006). Real-time quantitative assessment was performed using LightCycler with FastStart DNA Master SYBR Green I ready-to use PCR mix kits according to the manufacture's protocol (Roche Diagnostics, Mannheim, Germany). Forty ng cDNA was amplified per sample. Each experimental set included one reaction with water as template to control for cross contamination. Amplified products were visualized on 1.5% agarose gel. The sequences of the primers, the experimental conditions and the melting temperature of the products are described in Table 2 hereinafter. The results were analyzed in real-time on the provided program of the LightCycler and normalized against a reference gene in order to correct sample-to-sample variation. […] Expression stability of these genes was determined in our samples with ‘Normfinder’ Excel applet (Andersen et al., 2004); PPIB was chosen as the reference gene for normalization. […]
The biochemical data were analyzed by one way analysis of variance (ANOVA) followed by Dunnett's test. […] Clinical response was assessed with repeated measure ANOVA.
In this study, the significant gene expression changes in the PMC of schizophrenic patients, observed in the customized array and shown in Example 1, were verified by real-time RT-PCR. […] The expression level of each candidate was assessed in all samples.

[2] = test system: PMC from schizophrenic patients; assay: Real-time RT-PCR of GABAAβ2 and PKCβ2 mRNAs in PMC (8 patients)
Procedure: FIGS. 2A-2B show real-time RT-PCR analysis of GABAAβ2 (2A) and PKCβ2 (2B) mRNAs in PMCs from schizophrenic patients treated with an antipsychotic drug combined with the antidepressant agent fluvoxamine. Fluvoxamine (100 mg/day) was added in an open study format to the constant antipsychotic treatment of 8 patients suffering from chronic schizophrenia with persistent negative symptoms. Total RNA, isolated from PMCs of these patients at baseline (day 0, BL) as well as following 1, 3 and 6 weeks (1W, 3W and 6W, respectively) of the combined treatment, was reverse transcribed. cDNA was amplified in real-time PCR using suitable primers for GABAAβ2 and PKCβ2, as described in the Experimental section. The relative expression level of a given mRNA was assessed by normalizing to the reference gene PPIB. For each patient, the expression level of each one of the genes at baseline was arbitrarily set as 1, and the gene expression levels at 3 and 6 weeks were calculated relative to baseline. Lines connecting points indicate samples of the same patient. Dash line indicates average of the samples of different objects. Student's t-test *p<0.05; **p<0.01 for 1, 3 or 6 weeks of fluvoxamine add-on compared with baseline.
as §1, with “Amplified products were visualized on 1.5% agarose gel. The sequences of the primers, the experimental conditions and the melting temperature of the products are described in Table 2 hereinafter.” left out

[3] = test system: schizophrenic patients; assay: Clinical rating scales for negative (SANS) and positive (SAPS) symptoms; conditions: for SANS total / SAPS total / Affective blunting score / Alogia score / Anhedonia score / Avolition score: one line per patient I-VI
Procedure: Patients suffering from chronic schizophrenia (DSM IV criteria) with at least 2 years of illness (range 2-17 years) and persistent negative symptoms were chosen from an Israeli mental health center, as shown in Table 1. To qualify for inclusion in the study, these patients were required to be on constant antipsychotic medication for at least 6 months prior to the study and on an unchanged dose for at least 4 weeks before entry.
Fluvoxamine (100 mg/day) was added in an open study format to the antipsychotic treatment, which remained steady. Clinical state was assessed by psychiatrists using validated rating scales for negative (SANS) and positive (SAPS) symptoms (Silver et al., 2003) prior to fluvoxamine treatment and then weekly until the end of the trial period. Total SANS scores and summary scores for […] blunting, alogia, anhedonia and […] factors were the outcome measures. Extrapyramidal symptoms were assessed with the Simpson-Angus Scale (SAS) for extrapyramidal side effects (Simpson and Angus, 1970). Blood samples were taken at baseline (day 0), before addition of fluvoxamine, after 3 weeks of combined treatment, a time when the initial clinical effect is expected to be seen (Silver et al., 2003), and after 6 weeks of the combined treatment.
The biochemical data were analyzed by one way analysis of variance (ANOVA) followed by Dunnett's test. For each gene, differences between expression after 3 or 6 weeks of treatment ad baseline, were considered significant if they reached a level of significance of p<0.05. Clinical response was assessed with repeated measure ANOVA.

[4] = after 3-6 weeks of the combined treatment

COCCCC/C(=N\OCCN)c1ccc(C(F)(F)F)cc1 [fluvoxamine]
CCR7 mRNA expression ([1]; 3 and 6 weeks, among the patients): did not show a consistent trend | IL8Rα mRNA expression ([1]; after 3 and 6 weeks of add-on treatment vs initial level, normalized to PPIB): reduced significantly | RGS7 mRNA expression ([1]; after 6 weeks): significantly reduced | CCR1 mRNA expression ([1]; at both time points (3 and 6 weeks), in 5 out of 6 patients): reduced | average GABAAβ2 expression increase compared with day 0 [2, 4]: 40-50% | average PKCβ2 expression decrease compared with day 0 [2, 4]: ≥ 90% | average PKCβ2 expression decrease compared with day 0 ([2]; after one week of the combined treatment): about 30% | SANS total ([3]; 3 W of augmentation treatment): 71 and 49 and 69 and 104 and 91 and 97 | SAPS total ([3]; 3 W of augmentation treatment): 9 and 7 (2×) and 12 (2×) and 11 | Affective blunting score ([3]; 3 W): 23 and 26 and 19 and 9 and 18 and 27 | Alogia score ([3]; 3 W): 24 and 21 and 13 | Anhedonia score ([3]; 3 W): 14 (2×) and 16 and 11 (2×) and 17 | Avolition score ([3]; 3 W): 16 and 18 and 11 and 8 (2×) and 19 | SANS total ([3]; 6 W of augmentation treatment): 63 and 46 and 60 and 103 and 86 and 98 | SAPS total ([3]; 6 W of augmentation treatment): 9 and 7 and 6 and 12 (2×) and 10 | Affective blunting score ([3]; 6 W): 30 and 22 and 14 | Alogia score ([3]; 6 W): 21 and 26 (2×) and 16 and 9 and 15 | Anhedonia score ([3]; 6 W): 14 (2×) and 8 and 9 and 12 and 17 | Avolition score ([3]; 6 W): 16 and 18 and 11 and 8 (2×) and 19 | SAPS score change ([3]; following augmentation-treatment): no significant change | mean SANS total score change ([3]; following augmentation-treatment, p<0.001): significant changes | affective blunting change ([3]; following augmentation-treatment, p<0.01): significant changes | anhedonia change ([3]; following augmentation-treatment, p=0.30): trend | avolition change ([3]; following augmentation-treatment, p=0.75): trend
